Measurements from patent publication US9949917B2, “Cosmetic composition comprising a combination of a sugar fatty acid ester with a plant extract of Waltheria indica or Pisum sativum for skin whitening” (Cognis IP Management GmbH, priority 2006, dated 2018).

Key:
[1] = system: Melanocytes (B16 cell line); assay: Melanogenesis inhibition assay: level of melanin (optical density at 475 nm); type: cell-based
Description: Melanocytes (B16 cell line) were inoculated in standard medium of cell culture with foetal calf serum (FCS). After an incubation for 3 days at 37° C. and CO2=5%, growth medium was exchanged for standard medium with a range of concentrations for each ingredient to be tested and a control without ingredient. After an incubation of 3 days, the level of melanin is measured by recording the optical density at 475 nm. After washing the cells by a balanced salt, and homogenisation in a solution of 0.1 M NaOH, the number of viable cells is determined by evaluation of the level of cellular proteins (Bradford's method).
Combinations of ingredients have been tested on the same cell cultures, in parallel with the ingredients alone. The results are expressed in % against control (cell culture medium without ingredient) as a mean+/−SEM (Standard Error of Mean) on 2 or 3 assays, each in triplicate.

[2] = molecular target: T1, Tyrosinase in B16 melanocytes (Mus musculus, UniProt P11344); assay: Tyrosinase activity on melanocytes (DL-DOPA, optical density at 475 nm); type: cell-based
T1 construct: endogenous in cells; host or cells: B16 melanocytes (cell line)
T1 sequence (P11344 19-533): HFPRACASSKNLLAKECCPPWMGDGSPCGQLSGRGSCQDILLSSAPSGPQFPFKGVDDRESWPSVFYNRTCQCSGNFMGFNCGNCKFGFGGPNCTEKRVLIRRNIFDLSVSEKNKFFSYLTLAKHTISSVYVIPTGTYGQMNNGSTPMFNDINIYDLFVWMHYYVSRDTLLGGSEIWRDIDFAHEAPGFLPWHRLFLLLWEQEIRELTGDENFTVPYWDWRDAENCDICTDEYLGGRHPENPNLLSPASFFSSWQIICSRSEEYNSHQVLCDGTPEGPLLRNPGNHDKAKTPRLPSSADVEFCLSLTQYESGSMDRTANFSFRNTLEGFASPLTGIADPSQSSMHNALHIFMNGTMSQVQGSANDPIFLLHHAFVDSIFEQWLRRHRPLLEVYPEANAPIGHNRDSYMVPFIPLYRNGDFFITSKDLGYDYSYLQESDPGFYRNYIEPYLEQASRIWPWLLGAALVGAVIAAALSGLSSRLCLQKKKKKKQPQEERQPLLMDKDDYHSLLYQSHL
Description: Melanocytes (B16 cell line) were inoculated in standard medium of cell culture with foetal calf serum (FCS). […] Combinations of ingredients have been tested on the same cultures, in parallel with ingredients alone. […] The optical density at 475 nm is expressed as a % against control and presented as a mean+/−SEM (standard error of mean) of triplicates.

[3] = sucrose laurate 0.0003% (w/v) alone, 3 assays

In the case of “Sucrose laurate [Sucrose laurate of example 5]”, the “Rate of melanin in %/control” value [1, 3] is reported as 56 +/− 18 %/control, the “Ratio of rate of cellular proteins on rate of melanin” value (“Ratio of rate of cellular proteins” below) [1, 3] is reported as 1.8 and the “Rate of melanin in %/control” value ([1]; sucrose laurate 0.0003% (w/v) alone, 3 assays, listed as sucrose laurate) is reported as 56+/−18 %/control. The “Rate of melanin in %/control” value ([1]; sucrose laurate 0.001% (w/v) alone, 2 assays (Table 5)) was 56 +/− 7 %/control, the “Ratio of rate of cellular proteins” value ([1]; sucrose laurate 0.001% (w/v) alone, 2 assays (Table 6)) was 1.6 and the “Rate of melanin in %/control” value ([1]; sucrose laurate 0.001% (w/v) alone, 3 assays (Table 2)) was 54 +/− 16 %/control. For the same substance, the “Rate of melanin in %/control” value ([1]; sucrose laurate 0.001% (w/v) alone, 3 assays (Table 2), listed as sucrose laurate) was 54+/−16 %/control, the “Ratio of rate of cellular proteins” value ([1]; sucrose laurate 0.001% (w/v) alone, 3 assays (Table 3)) was 1.8 and the “effect on tyrosinase activity in melanocytes (in words)” value ([2]; Tables 7 and 8) was “decreases the tyrosinase activity”. The “Tyrosinase activity in %/control” value ([2]; sucrose laurate 0.005% (w/v) alone) was 75 +/− 6 %/control and the “Tyrosinase activity in %/control” value ([2]; sucrose laurate 0.01% (w/v) alone) was 64 +/− 7 %/control.
